This passage reports EC50 and Emax results from patent publication US8846951B2 (AbbVie Inc., priority 2009, dated 2014).

One assay has as its target T1, 5HT2B receptors (Homo sapiens, UniProt P41595).
T1 construct: expressed in transfected cells; host or cells: CHO-K1 cells
The assay is described as follows: Human 5-HT2B functional high throughput screening assay in CHO-K1 cells (calcium flux). In kind it is cell-based. The note with it: for EC50: CHO-K1 cells, calcium flux. A digest of the protocol: (§1)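 Serum-starved CHO-K1 cells carrying the receptor; Ca4 dye, 60 min RT. Test compound added after a 10 s baseline, fluorescence followed for 3 min. EC50 from 4-parameter fit; Emax given as % of serotonin effect.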
In general terms: A change in cytosolic calcium serves as a functional read-out for many receptors and channels.

In another assay the target is T2, 5HT2C receptors (Homo sapiens, UniProt P28335).
T2 sequence (P28335 33-458): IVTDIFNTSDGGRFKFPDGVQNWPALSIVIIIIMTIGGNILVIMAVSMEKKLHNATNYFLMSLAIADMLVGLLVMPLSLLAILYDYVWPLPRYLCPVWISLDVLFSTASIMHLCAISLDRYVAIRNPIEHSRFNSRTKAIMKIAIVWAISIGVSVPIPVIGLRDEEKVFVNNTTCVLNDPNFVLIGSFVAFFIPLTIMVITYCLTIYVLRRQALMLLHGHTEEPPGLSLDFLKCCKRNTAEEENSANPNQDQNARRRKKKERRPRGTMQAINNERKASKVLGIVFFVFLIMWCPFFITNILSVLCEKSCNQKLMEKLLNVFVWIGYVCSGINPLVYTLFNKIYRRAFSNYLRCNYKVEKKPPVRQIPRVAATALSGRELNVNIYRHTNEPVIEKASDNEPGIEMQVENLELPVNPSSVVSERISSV
The assay is described as follows: Human 5-HT2C functional high throughput screening assay in CHO-K1 cells (calcium flux). In kind it is cell-based. The arrangement: expressed in transfected cells; host or cells: CHO-K1 cells. The settings on record: for EC50: CHO-K1 cells, calcium flux; for Emax: CHO-K1, 5-HT2C, maximum functional response as percentage relative to the effect of serotonin. An outline of the steps: as §1

Where [1] appears, read: 5-HT2B agonist activity, read-out: EC50.
[2] abbreviates: CHO-K1, 5-HT2B, maximum functional response as percentage relative to the effect of serotonin, read-out: Emax.
Where [3] appears, read: 5-HT2C agonist activity, read-out: EC50.
The mark [4] stands for this setting: 5-HT2B, maximum functional response as percentage relative to the effect of serotonin.

Like-named read-outs stand apart in the source and are kept apart here.

T1 sequence (P41595 whole entry): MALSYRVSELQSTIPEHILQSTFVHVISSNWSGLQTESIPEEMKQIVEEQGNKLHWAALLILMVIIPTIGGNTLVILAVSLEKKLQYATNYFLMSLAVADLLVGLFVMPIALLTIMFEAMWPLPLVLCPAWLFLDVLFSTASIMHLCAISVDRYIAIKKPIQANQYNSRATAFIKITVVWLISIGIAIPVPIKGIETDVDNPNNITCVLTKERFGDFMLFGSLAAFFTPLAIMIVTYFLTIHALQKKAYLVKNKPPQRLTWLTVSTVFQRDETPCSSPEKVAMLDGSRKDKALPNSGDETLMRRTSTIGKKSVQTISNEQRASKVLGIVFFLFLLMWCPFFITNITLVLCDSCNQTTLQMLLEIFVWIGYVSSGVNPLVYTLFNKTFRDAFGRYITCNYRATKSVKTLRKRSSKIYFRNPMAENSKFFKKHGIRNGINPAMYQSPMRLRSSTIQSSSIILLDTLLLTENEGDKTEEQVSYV

Regarding `COc1ccc(OC)c(S(=O)(=O)N2Cc3cccnc3[C@@H]3CNC[C@H]3C2)c1` (relative stereo) [Example 343, Trans-6-[(2,5-dimethoxyphenyl)sulfonyl]-5,6,7,7a,8,9,10,10a-octahydropyrido[3,2-c]pyrrolo[3,4-e]azepine], the EC50 at 5HT2B receptors (setting [1]) was 1000 nM; at 5HT2C receptors (setting [3]), 300 nM. The Emax stood at 60% on 5HT2B receptors (setting [2]) and 85% on 5HT2C receptors (read-out: Emax).

For the molecule `COc1ccc(-c2ccc3c(c2)C(=O)NC[C@@H]2CN(C)C[C@@H]32)c(OC)c1` (relative stereo) [Example 303, Trans-8-(2,4-dimethoxyphenyl)-2-methyl-2,3,3a,4,5,10b-hexahydropyrrolo[3,4-d][2]benzazepin-6(1H)-one], the EC50 on 5HT2B receptors (setting [1]) is greater than 10000 nM; at 5HT2C receptors (setting [3]), 40 nM. Besides, the Emax result was “inactive” on 5HT2B receptors (setting [4]) and 100% at 5HT2C receptors (read-out: Emax).

As to `CN1C[C@H]2CNC(=O)c3cc(-c4ccccc4F)ccc3[C@@H]2C1` (relative stereo) [Example 77, Trans-8-(2-fluorophenyl)-2-methyl-1,2,3,3a,4,5-hexahydrobenzo[e]pyrrolo[3,4-c]azepin-6(10bH)-one], the values for the EC50 at 5HT2B receptors (setting [1]) and on 5HT2C receptors (setting [3]) were greater than 10000 nM and 5.8 nM, respectively. Moreover, the Emax result is “inactive” at 5HT2B receptors (setting [4]) and greater than 120% on 5HT2C receptors (read-out: Emax).

As for `COc1ccc(-c2ccc3c(c2)C(=O)NC[C@H]2CN(C)C[C@H]32)cc1Cl` [Example 319, (3aS,10bS)-8-(3-Chloro-4-methoxyphenyl)-2-methyl-2,3,3a,4,5,10b-hexahydropyrrolo[3,4-d][2]benzazepin-6(1H)-one], the EC50 at 5HT2B receptors (setting [1]) was greater than 10000 nM; on 5HT2C receptors (setting [3]) it was 6 nM. Also, the values for the Emax entry at 5HT2B receptors (setting [4]) and at 5HT2C receptors (read-out: Emax) were “inactive” and 90%, respectively.

With `c1ccc(CN2C[C@H]3CCNc4ccccc4[C@@H]3C2)cc1` (relative stereo) [Example 254, Trans-2-benzyl-1,2,3,3a,4,5,6,10b-octahydrobenzo[b]pyrrolo[3,4-d]azepine], the EC50 on 5HT2B receptors (setting [1]) turned out to be 800 nM; on 5HT2C receptors (setting [3]) it was 1000 nM. The Emax was 30% on 5HT2B receptors (setting [2]) and 105% on 5HT2C receptors (read-out: Emax).

With `COc1ccc(F)c(-c2ccc3c(c2)C(=O)NC[C@@H]2CN(C)C[C@@H]32)c1` (relative stereo) [Example 323, Trans-8-(2-fluoro-5-methoxyphenyl)-2-methyl-2,3,3a,4,5,10b-hexahydropyrrolo[3,4-d][2]benzazepin-6(1H)-one], the values for the EC50 at 5HT2B receptors (setting [1]) and at 5HT2C receptors (setting [3]) were greater than 10000 nM and 9 nM, respectively. Further, the Emax result at 5HT2B receptors (setting [4]) was “inactive”; at 5HT2C receptors (read-out: Emax), 90%.

With `CN1C[C@H]2CNC(=O)c3cc(-c4ccc5c(c4)C(=O)CCO5)ccc3[C@@H]2C1` (relative stereo) [Example 390, Trans-2-methyl-8-(4-oxo-3,4-dihydro-2H-chromen-6-yl)-2,3,3a,4,5,10b-hexahydropyrrolo[3,4-d][2]benzazepin-6(1H)-one], the EC50 on 5HT2B receptors (setting [1]) is greater than 10000 nM; on 5HT2C receptors (setting [3]), 8 nM. Besides, the values for the Emax result at 5HT2B receptors (setting [4]) and on 5HT2C receptors (read-out: Emax) were “inactive” and 90%, respectively.

Consider `O=C1NC[C@@H]2CNC[C@H]2c2cccc(OC(F)(F)F)c21` (relative stereo) [Example 103, Trans-7-(trifluoromethoxy)-1,2,3,3a,4,5-hexahydrobenzo[c]pyrrolo[3,4-e]azepin-6(10bH)-one], for which the Emax on 5HT2B receptors (CHO-K1) is 110%; on 5HT2C receptors it was greater than 120%. Also, the EC50 amounted to 80 nM on 5HT2B receptors (EC50, 5-HT2B agonist activity) and 0.7 nM at 5HT2C receptors (EC50, 5-HT2C agonist activity).

Turning to `O=C1NC[C@@H]2CN(Cc3ccccc3)C[C@H]2c2ccc(-c3ccc(F)cc3)cc21` (relative stereo) [Example 218, Trans-2-benzyl-8-(4-fluorophenyl)-1,2,3,3a,4,5-hexahydrobenzo[e]pyrrolo[3,4-c]azepin-6(10bH)-one], the EC50 is greater than 10000 nM on 5HT2B receptors (setting [1]) and 40 nM on 5HT2C receptors (setting [3]). The Emax entry at 5HT2B receptors (setting [4]) was “inactive”; on 5HT2C receptors (read-out: Emax) it was greater than 120%.

Regarding `CN1C[C@@H]2CNC(=O)c3cc(OCc4c(F)cccc4F)ccc3[C@H]2C1` [Example 209, (3aS,10bS)-8-(2,6-Difluorobenzyloxy)-2-methyl-1,2,3,3a,4,5-hexahydrobenzo[e]pyrrolo[3,4-c]azepin-6(10bH)-one], the results for the concentration giving a half-maximal response (EC50) at 5HT2B receptors (setting [1]) and at 5HT2C receptors (setting [3]) were greater than 10000 nM and 1 nM, respectively. For the same molecule, the Emax entry on 5HT2B receptors (setting [4]) was “inactive”; on 5HT2C receptors (read-out: Emax) it was greater than 120%.

Take `CC(C)COc1cccc(-c2ccc3c(c2)C(=O)NC[C@@H]2CN(C)C[C@@H]32)c1` (relative stereo) [Example 134, Trans-8-(3-isobutoxyphenyl)-2-methyl-1,2,3,3a,4,5-hexahydrobenzo[e]pyrrolo[3,4-c]azepin-6(10bH)-one]: the EC50 on 5HT2B receptors (setting [1]) is greater than 10000 nM; on 5HT2C receptors (setting [3]), 60 nM. The Emax entry is “inactive” at 5HT2B receptors (setting [4]) and greater than 120% at 5HT2C receptors (read-out: Emax).

With `Fc1cccc2c1OCC[C@H]1CNC[C@H]21` (relative stereo) [Example 281, Trans-7-fluoro-2,3,3a,4,5,10b-hexahydro-1H-[1]benzoxepino[4,5-c]pyrrole], the values for the Emax on 5HT2B receptors (CHO-K1) and on 5HT2C receptors were 90% and 100%, respectively. Besides, the EC50 at 5HT2B receptors (EC50, 5-HT2B agonist activity) was found to be 100 nM; on 5HT2C receptors (EC50, 5-HT2C agonist activity), 8 nM.

With `Cc1ccc(S(=O)(=O)N2Cc3cccnc3[C@@H]3CNC[C@H]3C2)cc1` (relative stereo) [Example 356, Trans-6-[(4-methylphenyl)sulfonyl]-5,6,7,7a,8,9,10,10a-octahydropyrido[3,2-c]pyrrolo[3,4-e]azepine], the Emax on 5HT2B receptors (CHO-K1) is 15%; on 5HT2C receptors, 90%. Moreover, the EC50 at 5HT2B receptors (EC50, 5-HT2B agonist activity) was 1000 nM; at 5HT2C receptors (EC50, 5-HT2C agonist activity) it was 40 nM.

Turning to `O=C1NC[C@@H]2CN(Cc3ccccc3)C[C@H]2c2ccc(O)cc21` (relative stereo) [Example 117, Trans-2-benzyl-8-hydroxy-1,2,3,3a,4,5-hexahydrobenzo[e]pyrrolo[3,4-c]azepin-6(10bH)-one], the EC50 was greater than 10000 nM at 5HT2B receptors (setting [1]) and 200 nM on 5HT2C receptors (setting [3]). Also, the figures for the Emax entry on 5HT2B receptors (setting [4]) and at 5HT2C receptors (read-out: Emax) were “inactive” and greater than 120%, respectively.

Regarding `CN1C[C@@H]2CNC(=O)c3cc(-c4cccc(S(C)(=O)=O)c4)ccc3[C@H]2C1` [Example 228, (3aS,10bS)-2-Methyl-8-(3-(methylsulfonyl)phenyl)-1,2,3,3a,4,5-hexahydrobenzo[c]pyrrolo[3,4-e]azepin-6(10bH)-one], the results for the EC50 at 5HT2B receptors (setting [1]) and at 5HT2C receptors (setting [3]) were greater than 10000 nM and 7 nM, respectively. Also, the Emax entry on 5HT2B receptors (setting [4]) is “inactive”; on 5HT2C receptors (read-out: Emax) it was greater than 120%.

Regarding `O=S(=O)(c1ccccc1Cl)N1Cc2cccnc2[C@@H]2CNC[C@H]2C1` (relative stereo) [Example 362, Trans-6-[(2-chlorophenyl)sulfonyl]-5,6,7,7a,8,9,10,10a-octahydropyrido[3,2-c]pyrrolo[3,4-e]azepine], the Emax stood at 75% at 5HT2B receptors (CHO-K1) and 80% at 5HT2C receptors. Also, the EC50 was 300 nM on 5HT2B receptors (EC50, 5-HT2B agonist activity) and 100 nM on 5HT2C receptors (EC50, 5-HT2C agonist activity).

On to `O=C1NC[C@@H]2CN(Cc3ccccc3)C[C@H]2c2c1sc1ccccc21` (relative stereo) [Example 97, Trans-2-benzyl-2,3,3a,4,5,11c-hexahydro[1]benzothieno[2,3-c]pyrrolo[3,4-e]azepin-6(1H)-one], for which the EC50 at 5HT2B receptors (setting [1]) was 4000 nM; at 5HT2C receptors (setting [3]), 1000 nM. For the same molecule, the figures for the Emax at 5HT2B receptors (setting [2]) and at 5HT2C receptors (read-out: Emax) were 40% and 110%, respectively.

In general, EC50 refers to the concentration needed to bring the measured effect to its halfway point. By Emax is commonly meant the maximal effect, on the per cent scale that the assay sets.
